Results from patent US9284330B2 (priority 2011, dated 2016).
Where two headings read alike, the source gives them in different places.

What was measured:
L-type Ca2+ channel [1] = assay: Blocking of L-type Ca2+ channel by patch clamp, calcium current in rat dorsal root ganglion cells; assay type: cell-based; conditions: whole cell patch clamp
acetylcholinesterase = acetylcholinesterase (Electrophorus electricus (Electric eel) (Gymnotus electricus), UniProt O42275); assay: biochemical
[2] = system: primary cortical neuron cells; conditions: for Relative neuron activity (average): 24 h incubation; for Toxicity to primary neurons (in words): concentrations tested 0.01, 0.1 and 1 μM, 24 h
[3] = system: tau protein phosphorylation; assay type: cell-based; conditions: Western blot, 24 h incubation
L-type Ca2+ channel [4] = assay: Blocking of L-type Ca2+ channel by high content screening analyzer, KCl-induced calcium ion influx in SH-SY5Y cells (Fluo-4-AM)
[5] = system: primary cortical neuron cells; assay: Effect of the compounds on the morphology of neurons (microscopy); conditions: 0.01 to 1 μM, 24 h

acetylcholinesterase, sequence (O42275 whole entry, looked up): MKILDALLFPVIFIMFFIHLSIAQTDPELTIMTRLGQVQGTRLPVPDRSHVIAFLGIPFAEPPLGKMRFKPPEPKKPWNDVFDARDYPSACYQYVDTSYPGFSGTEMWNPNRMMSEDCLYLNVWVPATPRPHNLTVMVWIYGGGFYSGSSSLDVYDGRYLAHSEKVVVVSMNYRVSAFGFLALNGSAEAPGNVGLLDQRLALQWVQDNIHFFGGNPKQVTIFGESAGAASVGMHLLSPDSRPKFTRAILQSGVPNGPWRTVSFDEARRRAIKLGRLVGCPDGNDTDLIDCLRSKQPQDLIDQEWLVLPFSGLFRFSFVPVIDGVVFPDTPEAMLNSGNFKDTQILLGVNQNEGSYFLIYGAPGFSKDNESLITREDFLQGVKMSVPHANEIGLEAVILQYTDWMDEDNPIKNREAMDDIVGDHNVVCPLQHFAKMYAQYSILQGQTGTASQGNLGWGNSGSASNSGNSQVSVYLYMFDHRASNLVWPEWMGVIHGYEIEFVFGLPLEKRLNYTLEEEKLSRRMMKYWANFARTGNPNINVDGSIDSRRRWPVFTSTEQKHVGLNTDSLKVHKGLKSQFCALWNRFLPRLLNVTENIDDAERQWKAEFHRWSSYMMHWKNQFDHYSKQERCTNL

Structure (SMILES)	Inhibition rate of L-type Ca2+ channel current (L-type Ca2+ channel [1]; 100 nmol/L compound)	Inhibition rate of L-type Ca2+ channel current (L-type Ca2+ channel [1]; 1000 nmol/L compound)	IC50 (acetylcholinesterase)	Relative neuron activity (average) ([2]; 0.01 μM)	Relative neuron activity (average) ([2]; 0.1 μM)	Relative neuron activity (average) ([2]; 1 μM)	Intracellular tau protein phosphorylation of neurons [3]	Toxicity to primary neurons (in words) [2]	Inhibition rate of KCl-induced calcium ion influx (L-type Ca2+ channel [4]; 10 μM compound)	Inhibition rate of KCl-induced calcium ion influx (L-type Ca2+ channel [4]; 50 μM compound)	Effect on the morphology of neurons [5]
COC(=O)C1=C(C)Nc2nc3c(c(N)c2C1c1cccc(Cl)c1Cl)CC(C)CC3 (stereo not shown) [Compound S27, 5-amino-4-(2,3-dichlorophenyl)-2,7-dimethyl-1,4,6,7,8,9-hexahydrobenzo[b][1,8]nap hthyridine-3-carboxylic acid methyl ester]	39.68%	65.54%	178 nM	123.7%	102.9%	43.0%					
COC(=O)C1=C(C)Nc2nc3c(c(N)c2C1c1cccc([N+](=O)[O-])c1)CCCC3C (stereo not shown) [Compound S15, 5-amino-4-(3-nitrophenyl)-2,9-dimethyl-1,4,6,7,8,9-hexahydrobenzo[b][1,8]naphthyridine-3-carboxylic acid methyl ester]			729 nM	111.9%	105.8%	65.9%	reduced	minor toxicity			
CCOC(=O)C1=C(C)Nc2nc3c(c(N)c2C1c1cccc(Cl)c1)CC(C)(C)CC3 (stereo not shown) [Compound S6, 5-amino-4-(3-chlorphenyl)-2,7,7-trimethyl-1,4,6,7,8,9-hexahydrobenzo[b][6,8]naphth yridine-3-carboxylic acid ethyl ester]			893 nM	107.1%	105.3%	99.0%	reduced	no significant toxicity	11.30%	95.51%	
CC1=C(C(=O)OC(C)C)C(c2ccccc2Cl)c2c(nc3c(c2N)CC(C)(C)CC3)N1 (stereo not shown) [Compound S32, 5-amino-2,7,7-trimethyl-4-(2-chlorphenyl)-1,4,6,7,8,9-hexahydrobenzo[b][1,8]naphth yridine-3-carboxylic acid isopropyl ester]			6920 nM	115.5%	106.5%	98.6%	reduced	no significant toxicity	29.49%	91.10%	
CC1=C(C(=O)OC(C)C)C(c2cccc(F)c2)c2c(nc3c(c2N)CC(C)(C)CC3)N1 (stereo not shown) [Compound S3, 5-amino-4-(3-fluorophenyl)-2,7,7-trimethyl-1,4,6,7,8,9-hexahydrobenzo[b][1,8]napht hyridine-3-carboxylic acid isopropyl ester]			1130 nM	107.7%	102.4%	98.8%	reduced	no significant toxicity	81.33%	86.82%	
CC1=C(C(=O)OC(C)C)C(c2ccccc2F)c2c(nc3c(c2N)CC(C)(C)CC3)N1 (stereo not shown) [Compound S8, 5-amino-4-(2-fluorophenyl)-2,7,7-trimethyl-1,4,6,7,8,9-hexahydrobenzo[b][1,8]napht hyridine-3-carboxylic acid isopropyl ester]			757 nM	114.7%	101.7%	97.7%	reduced	no significant toxicity	61.63%	93.28%	
CCOC(=O)C1=C(C)Nc2nc3c(c(N)c2C1c1ccccc1Cl)CC(C)(C)CC3 (stereo not shown) [Compound S1, 5-amino-4-(2-chlorphenyl)-2,7,7-trimethyl-1,4,6,7,8,9-hexahydrobenzo[b][1,8]naphthyridine-3-carboxylic acid ethyl ester]	38.14%	61.76%	768 nM	110.6%	113.9%	97.9%	reduced	no significant toxicity	29.29%	63.60%	no effect on the morphology of neurons
